Results from patent US20210087156A1, “PHARMACEUTICALLY ACCEPTABLE SALTS OF BENZODICYCLOALKANE DERIVATIVE, P[…] THEREOF, AND APPLICATION THEREOF” (priority 2018, published 2021).

What was measured:
[1] = background statement, cited from earlier work
[2] = In vivo test of rats: pharmacokinetics after oral administration; settings: male, SD, rat, 10 mg/kg, oral administration of dezocine in rats, dose of dezocine 10mpk
Method: LC-MS/MS method was applied for the determination of the drug concentration in plasma at different times after the example compounds were orally administered to rats in order to study the pharmacokinetic behavior of the compounds of the invention in vivo in rats and evaluate their pharmacokinetic characteristics.
Test Animals: healthy Adult male SD rats (weight 200-300 g, 3, fasted), provided by SLAC company;
Administration and Dosage: (16 mg/kg or 24 mg/kg, 10 mL/kg, 5% 1,2-propanediol (1,2-Propanediol, Shanghai Titan Technology Co., Ltd. Lot No.: P1057349)) was administered via oral gavage to SD rats;
Blood collection: firstly, the animals which were selected to meet the test requirements prior to administration were weighed. The rats were bound before the blood collection, blood from each administered rat was taken at predetermined time points, (blood was collected at 0.083, 0.25, 0.5, 1, 2, 4, 6, 8 h before and after administration respectively, 9 time points in total), about 150 μl of blood was collected via orbital vein. Blood was transferred to a 1.5 ml tube to which K2EDTA was added previously. The collected blood sample was put on ice, and centrifuged to obtain plasma sample (2000 g, 5 min under 4° C.) within 15 minutes. All the plasma samples were stored at approximately −70° C. until analysis.
LC/MS/MS method was applied to determine the concentrations of the drug. […]

δ opioid receptors = δ opioid receptors (Homo sapiens, UniProt P41143); settings: background statement; cited from earlier work
Sequence of δ opioid receptors (P41143 whole entry): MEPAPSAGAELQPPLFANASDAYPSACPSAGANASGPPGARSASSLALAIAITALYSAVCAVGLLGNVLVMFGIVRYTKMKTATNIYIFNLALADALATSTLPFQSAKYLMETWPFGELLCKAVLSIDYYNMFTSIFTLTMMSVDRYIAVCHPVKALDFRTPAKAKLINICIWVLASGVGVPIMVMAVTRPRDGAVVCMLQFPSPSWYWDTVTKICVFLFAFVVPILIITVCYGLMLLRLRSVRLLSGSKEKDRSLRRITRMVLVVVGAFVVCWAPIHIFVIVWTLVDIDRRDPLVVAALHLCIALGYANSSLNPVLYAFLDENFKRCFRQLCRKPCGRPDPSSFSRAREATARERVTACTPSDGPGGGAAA

C[C@@]12CCCCC[C@@H](Cc3ccc(O)cc31)[C@@H]2N [dezocine]
oral bioavailability [1]: ≤ 5%
time after which the blood drug concentration falls below the effective level ([1]; injection): 2 to 3 h
AUC [2]: 58.6 ng·h/mL
activity on δ opioid receptors (in words) (δ opioid receptors): very weak
